Experimental data as given in patent US7094909B2, “HIV protease inhibitors, compositions containing the same, their pharmaceutical uses and materials for their synthesis” (priority 2001, dated 2006).
Read-outs that look alike come from different tables or passages of the source.

Legend:
[1] = biological target: T1, HIV-1 protease (Q7S mutant form) (Human immunodeficiency virus type 1 group M subtype B, UniProt P04585, Q495S); test: HIV-1 Protease RET assay; type: biochemical; details: Ave. Ki (nM), RET assay, Q7S enzyme, Morrison tight binding fit
T1 construct: made in house
Method in brief: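 Q7S HIV-1 protease, refolded from urea, 2 nM active dimer with 5 μM EDANS/DABCYL peptide cleaved at Tyr-Pro; fluorescence 340/490 nm. 12 min at 37 °C in 0.1M sodium acetate pH 4.8, 1M NaCl, 10% DMSO. Ki from Morrison tight-binding fit.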

[2] = test system: HIV-1 (HIV-1 RF, HIV-1 NL4-3) in CEM-SS / MT-2 cells; test: Cytopathic effect (CPE) inhibition assay (XTT/MTT dye reduction); type: cell-based
Method in brief: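 CEM-SS or MT-2 cells were infected with HIV-1 RF or NL4-3 (moi 0.025–0.819) and plated at 2×10^4 cells/well with half-log compound dilutions for 6 days. Viability was read by XTT formazan at 450 nm after 4 h. EC50 restores formazan to 50% of uninfected untreated cells, CC50 halves it in uninfected cells, and TI = CC50/EC50.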

[3] = Human immunodeficiency virus 1, NL43, read-out: Ave CPE EC50
[4] = Human immunodeficiency virus 1, NL43, read-out: Ave CPE EC50 (mM)

| SMILES | Ki [1] | EC50 [2, 3] | EC50 [2, 4] |
| --- | --- | --- | --- |
| Cc1c(O)cccc1C(=O)N[C@@H](Cc1ccccc1)[C@H](O)C(=O)N1CSC(C)(C)[C@H]1C(=O)NCc1oc2ccccc2c1C [Example A54, (R)-3-[(2S,3S)-2-Hydroxy-3-(3-hydroxy-2-methyl-benzoylamino)-4-phenyl-butyryl]-5,5-dimethyl-thiazolidine-4-carboxylic acid (3-methyl-benzofuran-2-ylmethyl)-amide] | 4.5 nM | 1230 nM | – |
| Cc1c(O)cccc1C(=O)N[C@@H](Cc1ccccc1)[C@H](O)C(=O)N1CSC(C)(C)[C@H]1C(=O)NN(C)c1ccccc1 [Example A57, N-{(1S,2S)-1-Benzyl-3-[(R)-5,5-dimethyl-4-(N′-methyl-N′-phenyl-hydrazinocarbonyl)-thiazolidin-3-yl]-2-hydroxy-3-oxo-propyl}-3-hydroxy-2-methyl-benzamide] | 5.6 nM | 1530 nM | – |
| Cc1c(O)cccc1C(=O)N[C@@H](Cc1ccccc1)[C@H](O)C(=O)N1CSC(C)(C)[C@H]1C(=O)NCc1ccc2c(c1)OC(F)(F)O2 [Example A59, (R)-3-((2S,3S)-2-Hydroxy-3-{[1-(3-hydroxy-2-methyl-phenyl)-methanoyl]-amino}-4-phenyl-butanoyl)-5,5-dimethyl-thiazolidine-4-carboxylic acid (2,2-difluoro-benzo[1,3]dioxol-5-ylmethyl)-amide] | 0.19 nM | – | 417 nM |
| Cc1c(O)cccc1C(=O)N[C@@H](Cc1ccccc1)[C@H](O)C(=O)N1CSC(C)(C)[C@H]1C(=O)NCc1cc2ccccc2[nH]1 [Example A61, (R)-3-[(2S,3S)-2-Hydroxy-3-(3-hydroxy-2-methyl-benzoylamino)-4-phenyl-butyryl]-5,5-dimethyl-thiazolidine-4-carboxylic acid (1H-indol-2-ylmethyl)-amide] | 0.99 nM | 1060 nM | – |
| Cc1c(O)cccc1C(=O)N[C@@H](Cc1ccccc1)[C@H](O)C(=O)N1CSC(C)(C)[C@H]1C(=O)NCc1cc2ccccc2o1 [Example A62, (R)-3-[(2S,3S)-2-Hydroxy-3-(3-hydroxy-2-methyl-benzoylamino)-4-phenyl-butyryl]-5,5-dimethyl-thiazolidine-4-carboxylic acid (benzofuran-2-ylmethyl)-amide] | 9.6 nM | 2260 nM | – |
| Cc1c(O)cccc1C(=O)N[C@@H](Cc1ccccc1)[C@H](O)C(=O)N1CSC(C)(C)[C@H]1C(=O)NCc1cc2ccccc2n1C [Example A63, (R)-3-[(2S,3S)-2-Hydroxy-3-(3-hydroxy-2-methyl-benzoylamino)-4-phenyl-butyryl]-5,5-dimethyl-thiazolidine-4-carboxylic acid (1-methyl-1H-indol-2-ylmethyl)-amide] | 4.5 nM | 1190 nM | – |
| Cc1ccccc1CNC(=O)[C@H]1N(C(=O)[C@@H](O)[C@H](Cc2ccccc2)NC(=O)c2cccc3c2CCCN3)CSC1(C)C [Example B2, 1,2,3,4-Tetrahydro-quinoline-5-carboxylic acid {(1S,2S)-1-benzyl-3-[(R)-5,5-dimethyl-4-(2-methyl-benzylcarbamoyl)-thiazolidin-3-yl]-2-hydroxy-3-oxo-propyl}-amide] | 0.35 nM | 87 nM | – |
| Cc1ccccc1CNC(=O)[C@H]1N(C(=O)[C@@H](O)[C@H](Cc2ccccc2)NC(=O)N2CC[C@@H](O)C2)CSC1(C)C [Example B3, 3-(2-hydroxy-3-{[1-(3-hydroxy-pyrrolidin-yl)-methanoyl]-amino}-4-phenyl-butanoyl)-5,5-dimethyl-thiazolidine-4-carboxylic acid-2-methyl-benzylamide] | 2.5 nM | – | 905 nM |
| Cc1ccccc1CNC(=O)[C@H]1N(C(=O)[C@@H](O)[C@H](Cc2ccccc2)NC(=O)CSc2nc[nH]n2)CSC1(C)C [Example B4, 3-{2-Hydroxy-4-phenyl-3-[2-(2H-[1,2,4t]triazol-3-ylsufanyl)-ethanoylamino]-butanoyl}5,5-dimethyl-thiazolidine-4-carboxylic acid-2-methyl-benzylamide] | 3 nM | 707 nM | – |
| Cc1ccccc1CNC(=O)[C@H]1N(C(=O)[C@@H](O)[C@H](Cc2ccccc2)NC(=O)O[C@@H]2CCS[C@@H]2C(C)C)CSC1(C)C [Example B5, {(1S,2S)-1-Benzyl-3-[(R)-5,5-dimethyl-4-(2-methyl-benzylcarbamoyl)-thiazolidin-3-yl]-2-hydroxy-3-oxo-propyl}-carbamic acid (R)-2-isopropyl-tetrahydro-thiophen-3-yl ester] | 1.2 nM | 314 nM | – |
| Cc1ccccc1CNC(=O)[C@H]1N(C(=O)[C@@H](O)[C@H](Cc2ccccc2)NC(=O)c2cccc3[nH]ccc23)CSC1(C)C [Example B8, 1H-Indole-4-carboxylic acid {(1S,2S)-1-benzyl-3-[(R)-5,5-dimethyl-4-(2-methyl-benzylcarbamoyl)-thiazolidin-3-yl]-2-hydroxy-3-oxo-propyl}-amide] | 0.63 nM | 474 nM | – |
| Cc1ccccc1CNC(=O)[C@H]1N(C(=O)[C@@H](O)[C@H](Cc2ccccc2)NC(=O)c2cccc3[nH]ncc23)CSC1(C)C [Example B9, 1H -Indazle-4-carboxylic acid {1-benzyl-3-[5,5-dimethyl-4-(2-methyl-benzylcarbamoyl)-thiazolidin-3-yl]-2-hydroxy-3-oxo-propyl}-amide] | 1.1 nM | 452 nM | – |
| C#CCOC(=O)N[C@@H](Cc1ccccc1)[C@H](O)C(=O)N1CSC(C)(C)[C@H]1C(=O)NCc1ccccc1C [Example B10, {(1S,2S)-1-Benzyl-3-[(R)-5,5-dimethyl-4-(2-methyl-benzylcarbamoyl)-thiazolidin-3-yl]-2-hydroxy-3-oxo-propyl}-carbamic acid prop-2-ynyl ester] | 0.57 nM | 386 nM | – |
| CCC(C)C(=O)N[C@@H](Cc1ccccc1)[C@H](O)C(=O)N1CSC(C)(C)[C@H]1C(=O)NCc1ccccc1C (stereo partly drawn) [Example B12, (R)-3-[(2S,3S)-2-Hydroxy-3-(2-methyl-butyrylamino)-4-phenyl-butyryl]-5,5-dimethyl-thiazolidine-4-carboxylic acid 2-methyl-benzylamide] | 9.9 nM | > 1000 nM | – |
| C=CCNC(=O)N[C@@H](Cc1ccccc1)[C@H](O)C(=O)N1CSC(C)(C)[C@H]1C(=O)NCc1ccccc1C [Example B13, (R)-3-[(2S,3S)-3-(3-Allyl-ureido)-2-hydroxy-4-phenyl-butyryl]-5,5-dimethyl-thiazolidine-4-carboxylic acid 2-methyl-benzylamide] | 2 nM | 1460 nM | – |
| C=CCCOC(=O)N[C@@H](Cc1ccccc1)[C@H](O)C(=O)N1CSC(C)(C)[C@H]1C(=O)NCc1ccccc1C [Example B14, {(1S,2S)-1-Benzyl-3-[(R)-5,5-dimethyl-4-(2-methyl-benzylcarbamoyl)-thiazolidin-3-yl]-2-hydroxy-3-oxo-propyl}-carbamic acid but-3-enyl ester] | 2.7 nM | 1660 nM | – |
| Cc1ccccc1CNC(=O)[C@H]1N(C(=O)[C@@H](O)[C@H](Cc2ccccc2)NC(=O)C2CC2)CSC1(C)C [Example B15, 3-[(S)-3-(Cyclopropanecarbonyl-amino)-2-hydroxy-4-phenyl-butyryl]-5,5-dimethyl-thiazolidine-4-carboxylic acid 2-methyl-benzylamide] | 1.3 nM | 2300 nM | – |
